Measured values published in patent US6589942B1, “Chitosan metal complexes and method for controlling microbial growth on plants using same” (priority 1998, dated 2003).

Columns and labels:
Assay type in all cases: in vivo
cucumber plants [1] = test: toxicity to cucumber plants (Example 3)
potato leaves = test: toxicity to potato leaves (Example 2)
cucumber plants [2] = test: toxicity to cucumber plants (Example 5)
Description: Controlling the Gray mold disease caused by Botrytis cinerea in cucumber plants utilizing 0.1% chitosan and metal complexes.

Measured: toxicity to the plant

O=[N+]([O-])[O-].O=[N+]([O-])[O-].[Cu+2] [CuNO3]
toxic: cucumber plants [1]; 25 ppm metals | cucumber plants [1]; 50 ppm metals | cucumber plants [1]; 75 ppm metals | potato leaves; 25 ppm metals | potato leaves; 50 ppm metals | potato leaves; 75 ppm metals | cucumber plants [2]; 35 ppm metals | cucumber plants [2]; 50 ppm metals
